Usually IC50 stands for the concentration that gives 50% inhibition.

Activity calls are given as the source filed them. No rule for the calls is given here.

Drawing on PubChem BioAssay AID365 (MTDP, 2006), this text covers IC50 for 63 compounds.

The experiment deals with Ribonuclease HI (Escherichia coli (strain K12)) (UniProt P0A7Y4). Nature of the experiment: inhibition of bacterial ribonuclease H activity – biochemical, FRET RNA/DNA duplex cleavage, dose response (AID 365). The note with it: E. coli RNase H, FRET RNA/DNA cleavage fluorescence.
Chain of Ribonuclease HI (Escherichia coli (strain K12)) (P0A7Y4 whole entry, looked up): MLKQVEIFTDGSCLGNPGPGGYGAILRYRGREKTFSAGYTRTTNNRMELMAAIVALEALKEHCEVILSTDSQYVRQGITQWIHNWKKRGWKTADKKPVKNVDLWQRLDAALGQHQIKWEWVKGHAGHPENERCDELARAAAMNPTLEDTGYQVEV
As to `CC(C)=CCC[C@]1(C)[C@@H](CC=C(C)C)C[C@@]2(CC=C(C)C)C(=O)/C(=C(\O)c3ccc(O)c(O)c3)C(=O)[C@]1(CC=C(C)C)C2=O`, the IC50 is 2.1 µM.
Take `Cc1ccc(-c2cc(C(=O)Nc3sc(C(=O)OC(C)C)c(C)c3C(N)=O)c3ccccc3n2)s1`: the IC50 is 1.8 µM.
The value for `O=C1/C(=C/c2ccc(O)c(O)c2)SC(=S)N1C1CCCCC1` was 3 µM.
For `O=C1C=CC(=O)C(c2cccc(Cl)c2)=C1`, the IC50 was 8.8 µM.
In the case of `O=C1C(Cl)=C/C(=N\S(=O)(=O)c2ccc(Cl)cc2)C(Cl)=C1Cl`, the IC50 entry is “inactive”.
The value for `O=c1[nH]c2[nH]c(=S)[nH]c(=S)c2[nH]1` was > 100 µM (inactive); that for `Cc1cc(-c2ccco2)c(C#N)c(SCC(=O)c2ccc(O)c(O)c2)n1` was 1.1 µM; that for `O=C(Nc1ccc(N2CCN(C(=O)c3ccccc3)CC2)cc1)c1ccc(-c2ccccc2)cc1` was 3.8 µM.
For `Ic1ccc2c(c1)N(c1ccccc1)c1cc(N=c3ccc4nc5ccc(I)cc5n(-c5ccccc5)c-4c3)ccc1N2` the value was 4.1 µM.
Turning to `O=C(NC(=S)Nc1cc(-c2nc3ccccc3s2)ccc1Cl)c1ccc(F)cc1`, the IC50 was 6 µM.
For `O=C(Cc1ccccc1Cl)c1ccc(O)c(O)c1O` the value was “inactive”; for `CN(C)S(=O)(=O)c1ccc(Nc2ccc(O)c3c2C(=O)c2c([N+](=O)[O-])ccc(O)c2C3=O)cc1`, 8 µM; for `Cc1ccc(S(=O)(=O)/N=C2\C=C(Sc3ncn[nH]3)C(=O)c3ccccc32)cc1`, “inactive”.
The value for `CC(=O)O[C@H](C)[C@@H]1C2=C(C(=O)C[C@]1(C)O)C(=O)c1c(ccc(-c3ccc4c(c3O)C(=O)C3=C(C4=O)[C@@H]([C@@H](C)OC(C)=O)[C@@](C)(O)CC3=O)c1O)C2=O` was > 100 µM (inactive); that for `Oc1cc(O)c2cc(O)c(-c3ccc(O)c(O)c3)[o+]c2c1` was 0.4 µM.
For `Cc1cc(Br)ccc1N1C(=O)/C(=C/c2ccco2)C(=O)NC1=S` the value was 0.2 µM; for `Cc1cc(O)c2c(c1O)C(=O)C13C(=C2O)C(=O)C2C(O)C1C1C(O)C3C(=O)C3=C(O)c4c(O)cc(C)c(O)c4C(=O)C321` (stereo not drawn), “inactive”.
In the case of `CCc1c(O)c2c(c(O)c1C(C)=O)C(=O)c1c(cc(O)c(C(=O)O)c1C(=O)O)C2=O`, the IC50 is > 100 µM (inactive).
The value for `O=S(=O)(O)c1cc(N=[N+]([O-])c2cc(S(=O)(=O)O)c3ccccc3c2)cc2ccccc12` was 0.7 µM; that for `Cc1c(Cl)ccc2c1NC(C(=O)O)C1CC=CC21` (stereo not drawn) was 6.8 µM.
For `O=C1NC(=O)/C(=C/c2ccc(-c3ccc(O)c(C(=O)O)c3)o2)S1` the value was 1.3 µM.
For `O=C1/C(=C/c2ccco2)C(=O)N(c2ccc(Br)cc2)C(=S)N1c1ccccc1` the value was “inactive”.
With `Cc1ccc(C=C2C(=O)NC(=S)N(c3ccccc3Cl)C2=O)o1`, the IC50 result is “inactive”.
With `O=[N+]([O-])c1cc(Cc2cc([N+](=O)[O-])c3cccnc3c2O)c(O)c2ncccc12`, the IC50 entry was “inactive”.
The value for `C[C@@H]1Oc2c3c(c4c(-c5ccccc5)cc(=O)oc4c2C(=O)[C@H]1C)OC(C)(C)C=C3` was 4.2 µM; that for `Cc1ccc(C)n1-c1ccc(SCC(=O)O)cc1` was > 100 µM (inactive).
The value for `CC(C)=CCC1=C(O)[C@@](O)(CC=C(C)C)C(=O)C(C(=O)CC(C)C)=C1O` was “inactive”; that for `NC(=O)c1c(NC(=O)COc2ccccc2)sc2c1CCCCC2` was 2 µM; that for `O=C1/C(=C/c2ccc(O)c(O)c2)SC(=S)N1c1ccc(O)cc1` was 8 µM.
For `CCOc1ccc(C2=CC(=O)C=CC2=O)cc1` the value was “inactive”; for `O=C(Nc1sc2c(c1C(=O)Nc1cccc3ccccc13)CCCCC2)c1ccccc1F`, 5 µM; for `O=[N+]([O-])c1ccc(S(=O)(=O)Cc2ccccc2)c2nonc12`, “inactive”.
With `Nc1ccc(N=Nc2ccc(-c3ccc(O)cc3)cc2)c2ccc(S(=O)(=O)O)cc12`, the IC50 entry is “inactive”.
For `O=C1NC(=S)N(c2ccc(Cl)cc2)C(=O)/C1=C/c1ccco1` the value was “inactive”; for `Cc1sc(NC(=O)c2ccc3c(c2)OCO3)c(C(N)=O)c1C`, 4 µM.
The value for `CCCCCCCCCCCCCCCC(=O)OCC1OC(n2ccc(N)nc2=O)C(O)C1O` (stereo not drawn) was 0.64 µM; that for `COc1ccc2oc(=O)c(-c3csc(Nc4ccc(Br)cc4)n3)cc2c1` was 2.8 µM; that for `Nc1cc(S(N)(=O)=O)ccc1SSc1ccc(S(N)(=O)=O)cc1N` was > 100 µM (inactive).
For `Cc1sc(NC(=O)Cc2ccccc2)c(C(N)=O)c1C` the value was “inactive”; for `COc1ccccc1N=C(NOCc1ccc(Cl)cc1Cl)c1nonc1N`, “inactive”; for `S=C(Nc1ccc2c(c1)Cc1ccccc1-2)Nc1ccc2c(c1)Cc1ccccc1-2`, 4 µM.
In the case of `O=C(O)c1cc(-c2ccc(/C=C3/Sc4ccccc4C3=O)o2)ccc1O`, the IC50 is 1 µM.
The value for `CCN1C(=O)/C(=C/c2ccoc2)C(=O)NC1=S` was “inactive”.
For `Cc1ccc(C2COc3cc(O)c(O)cc3C2)cc1` (stereo not drawn) the value was “inactive”.
For `COc1ccc(C(=O)NC(=S)Nc2ccc3nn(-c4ccc(C)c(Cl)c4)nc3c2)cc1[N+](=O)[O-]` the value was “inactive”.
Consider `CCOc1ccc(N2C(=O)/C(=C/c3ccc(Br)o3)C(=O)NC2=S)cc1`, for which the IC50 was 0.8 µM.
The value for `O=c1oc2ccccc2c(O)c1/C=C1\C=Nc2ccccc21` was “inactive”; that for `CCC(=O)Nc1sc2c(c1C(=O)Nc1ccc(OC)cc1)CCCCC2` was 9 µM.
The value for `O=C(O)C1CCCCC1c1c2ccc(=O)c(O)c-2oc2c(O)c(O)ccc12` (stereo not drawn) was 2 µM; that for `O=C1c2ccc(O)cc2C(=O)c2c1ccc(O)c2O` was “inactive”.
For `O=C1NC(=S)N(c2ccccc2F)C(=O)/C1=C/c1ccc(I)o1` the value was 7.3 µM; for `O=c1c(O)c(-c2cc(O)c(O)c(O)c2)oc2cc(O)cc(O)c12`, “inactive”; for `C=C(C)[C@@H]1CCc2c(O)c(O)c(=O)cc(C)c2C1`, “inactive”.
For `Cc1cc(C)c2c(=O)[nH]c(SCC(=O)c3ccc(O)c(O)c3)nc2n1`, the IC50 is 18 µM.
For `COC(=O)c1cc2c3c(ccc2[nH]1)N(C(=O)c1cc2c4c(ccc2[nH]1)N(C(=O)c1cc2c5c(ccc2[nH]1)N(C(N)=O)CC5)CC4)CC3` the value was “inactive”; for `O=[N+]([O-])c1c(Cl)cccc1-c1c[nH]cc1Cl`, > 100 µM (inactive).
For `O=C1C(Cl)=CC(=NS(=O)(=O)c2ccccc2)C=C1Cl` the value was “inactive”; for `C=CCN1C(=O)/C(=C\c2ccc([N+](=O)[O-])o2)C(=O)NC1=S`, 72 µM.
The value for `CCOc1ccc(C(=O)Nc2ccc3c(c2)C(=O)c2ccccc2C3=O)cc1` was 4 µM; that for `O=C1C=CC(=NS(=O)(=O)c2ccc(Cl)c([N+](=O)[O-])c2)C=C1` was 7 µM; that for `COc1cc(C=O)ccc1OCCCOc1cccc(Oc2ccccc2)c1` was 4.1 µM.
In the case of `Cc1cc(-c2ccc(C=C3C(=O)NC(=S)NC3=O)o2)c([N+](=O)[O-])cc1C`, the IC50 is 8.8 µM.
The value for `O=C1C=CC(=O)c2c(O)cccc21` was 4.9 µM.
